# pIC50: −log10 of the molar value.
# Target: T1, recombinant human DPP-1 (Cathepsin C) (Homo sapiens, UniProt P53634)
# T1 construct: made in house
# Assay: DPP-1 Inhibition Assay (In Vitro), fluorogenic substrate GR-AMC
# Assay type: biochemical
# Settings: 0.15 nM DPP-1, 10 uM GR-AMC, pH 7.0, room temperature; average value where tested multiple times
# Method: Test compounds were assessed for DPP-1 (Cathepsin C) inhibitory activity using a fluorogenic substrate, GR-AMC (Glycine-Arginine-amino-4-methylcoumarin, Bachem, I-1215). The amount of amino-methylcoumarin released is proportional to the DPP-1 activity, and the reaction is monitored kinetically with a Molecular Devices plate reader using black 96-well plates.
# All compounds were tested under room temperature conditions. The assay buffer consisted of 50 mM HEPES, pH 7.0, 100 mM NaCl, 2 mM glutathione (GSH), and 0.002% TWEEN 20. GSH and TWEEN 20 were added to the buffer fresh daily. Just prior to use, an in-house preparation of recombinant human DPP-1 (240 μM stock, MW 49.6 kD) was diluted 600-fold in assay buffer containing fresh 2 mM dithiothreitol (DTT) to activate the enzyme, then diluted into assay buffer (without DTT) 133-fold for a DPP-1 working solution of 3 nM. Test compounds were diluted in DMSO for 20× their final assay concentrations.
# Additions to a 96-well black Costar 3915 plates were as follows: 90 μL of 11 μM GR-AMC, 5 μL test compound (followed by mixing), and 5 μL 3 nM DPP-1 to start the reaction. Fluorescent reactions were monitored kinetically at 360 nm excitation, 440 nm emission on a Molecular Devices Spectramax XPS reader. The Softmax Pro software of the reader determined the initial velocity of the selected data (the first 3-5 minutes of the reaction), and the best linear regression fit of the initial kinetic data. Final assay conditions were 0.15 nM DPP-1, 10 uM GR-AMC, 50 mM HEPES, pH 7.0, 100 mM NaCl, 2 mM GSH, 0.002% TWEEN 20, 1 uM DTT, 5.0% DMSO. Initial velocity rates were plotted vs. test compound concentration by use of a four-parameter logistics equation (nonlinear regression, sigmoidal dose-response (variable slope), with fixed Hill (1.0) using GraphPad Prism® software for determination of DPP-1 IC50. Within-run assay coefficient of variation (CV) was generally <10%; between-run CV <20%.
# Representative compounds of the present invention were tested according to the procedure as described above, with results as listed in Table 5, below.
# T1 sequence (P53634 25-463): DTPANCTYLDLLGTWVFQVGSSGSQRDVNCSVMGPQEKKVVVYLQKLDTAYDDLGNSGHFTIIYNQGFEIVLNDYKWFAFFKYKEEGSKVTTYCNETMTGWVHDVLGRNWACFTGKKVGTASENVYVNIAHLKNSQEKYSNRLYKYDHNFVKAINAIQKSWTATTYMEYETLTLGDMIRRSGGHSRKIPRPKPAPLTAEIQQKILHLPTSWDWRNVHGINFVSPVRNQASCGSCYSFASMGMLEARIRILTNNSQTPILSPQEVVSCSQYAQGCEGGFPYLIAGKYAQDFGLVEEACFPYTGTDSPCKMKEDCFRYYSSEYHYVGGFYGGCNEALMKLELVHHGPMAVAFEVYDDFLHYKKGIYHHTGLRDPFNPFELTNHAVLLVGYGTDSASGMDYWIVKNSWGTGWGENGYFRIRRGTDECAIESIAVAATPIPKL
row,SMILES,pIC50
1,CC[C@H](N)C(=O)N1CCC(Cc2ccc(Cl)cc2)(C(=O)OCC2CCCCC2)CC1 [Compound 13],5.37
2,N[C@@H](Cc1cccs1)C(=O)N1CCC(Cc2ccncc2)(C(=O)NCC2CCOCC2)CC1 [Compound 121],6.89
3,CC[C@H](N)C(=O)N1CCC(C(=O)NC2CCCCC2)(c2ccccc2)CC1 [Compound 70],5.03
4,N[C@@H](Cc1cc(Br)cs1)C(=O)N1CCC(Cc2ccc(I)cc2)(C(=O)NC2CCCCC2)CC1 [Compound 92],5.25
5,CC[C@H](N)C(=O)N1CCC(C(=O)N(C)C2CCCCC2)(c2ccccc2)CC1 [Compound 138],5.77
6,CC[C@H](N)C(=O)N1CCC(Cc2cccc(OC)c2)(C(=O)NC2CCCCC2)CC1 [Compound 83],5.02
7,N[C@@H](Cc1cccs1)C(=O)N1CCC(C(=O)NC2=NCCS2)(c2ccccc2)CC1 [Compound 114],6.66
8,COC(=O)C1(Cc2ccc(-c3ccccc3)cc2)CCN(C(=O)[C@@H](N)Cc2cccs2)CC1 [Compound 1],5.74
9,N[C@@H](Cc1c[nH]cn1)C(=O)N1CCC(Cc2ccc(-c3ccccc3)cc2)(C(=O)NCC2CCCCC2)CC1 [Compound 9],6.03
10,COC[C@H](N)C(=O)N1CCC(Cc2ccc(-c3ccccc3)cc2)(C(=O)NC2CCCCC2)CC1 [Compound 39],4.74
11,N[C@@H](Cc1cccs1)C(=O)N1CCC(C(=O)NC[C@H]2CC[C@H](C(=O)O)CC2)(c2ccccc2)CC1 [Compound 112],6.70
12,N[C@@H](Cc1c[nH]cn1)C(=O)N1CCC(Cc2ccccc2)(C(=O)OCC2CCCCC2)CC1 [Compound 12],~5.30
13,N[C@@H](Cc1cccs1)C(=O)N1CCC(Cc2cccc(-c3ccc(C(F)(F)F)cc3)c2)(C(=O)NC2CCCCC2)CC1 [Compound 100],6.92
14,N[C@@H](Cc1cccs1)C(=O)N1CCC(Cc2ccncc2)(C(=O)N2CCOCC2)CC1 [Compound 122],5.89
15,N[C@@H](Cc1cccs1)C(=O)N1CCC(Cc2ccc(F)cc2F)(C(=O)OCC2CCCCC2)CC1 [Compound 27],6.66
16,N[C@@H](Cc1cccs1)C(=O)N1CCC(Cc2ccc(C(F)(F)F)cc2)(C(=O)OCC2CCCCC2)CC1 [Compound 19],6.40

row,SMILES,pIC50
1,N[C@@H](Cc1nccs1)C(=O)N1CCC(Cc2ccc(-c3ccccc3)cc2)(C(=O)NC2CCCCC2)CC1 [Compound 33],6.64
2,N[C@@H](Cc1cccs1)C(=O)N1CCC(C(=O)N[C@H]2CC[C@H](O)CC2)(c2ccccc2)CC1 [Compound 85],6.96
3,CCSCC[C@H](N)C(=O)N1CCC(Cc2ccc(-c3ccccc3)cc2)(C(=O)NCC2CCCCC2)CC1 [Compound 106],5.25
4,N[C@@H](Cc1cccs1)C(=O)N1CCC(C(=O)NC2CCOCC2)(c2ccccc2)CC1 [Compound 103],6.51
5,N[C@@H](Cc1cccs1)C(=O)N1CCC(Cc2ccc(-c3ccccc3)cc2)(C(=O)N2CCCCC2)CC1 [Compound 4],6.37
6,N[C@@H](Cc1c[nH]cn1)C(=O)N1CCC(C(=O)NC2CCCCC2)(c2ccccc2)CC1 [Compound 75],5.55
7,CC[C@H](N)C(=O)N1CCC(Cc2ccccc2)(C(=O)OCC2CCCCC2)CC1 [Compound 10],~5.30
8,N[C@@H](Cc1cccs1)C(=O)N1CCC(Cc2ccc(-c3ccccc3)cc2)(C(=O)O)CC1 [Compound 2],< 5.00
9,N[C@@H](Cc1ccco1)C(=O)N1CCC(Cc2ccc(-c3ccccc3)cc2)(C(=O)NC2CCCCC2)CC1 [Compound 37],6.64
10,N[C@@H](Cc1c[nH]cn1)C(=O)N1CCC(Cc2cccnc2)(C(=O)OCC2CCCCC2)CC1 [Compound 25],5.74
11,N[C@@H](Cc1cccs1)C(=O)N1CCC(Cc2ccc(-c3ccc(C(F)(F)F)cc3)cc2)(C(=O)NC2CCCCC2)CC1 [Compound 53],6.85
12,N#CC[C@H](N)C(=O)N1CCC(Cc2ccc(-c3ccccc3)cc2)(C(=O)NC2CCCCC2)CC1 [Compound 36],6.22
13,CC[C@H](N)C(=O)N1CCC(Cc2ccc(F)cc2F)(C(=O)OCC2CCCCC2)CC1 [Compound 26],5.21
14,N[C@@H](Cc1cccs1)C(=O)N1CCC(Cc2ccc(C(=O)O)cc2)(C(=O)NC2CCCCC2)CC1 [Compound 62],6.44
15,N[C@@H](Cc1ccc(Cl)s1)C(=O)N1CCC(Cc2ccc(-c3ccccc3)cc2)(C(=O)NC2CCCCC2)CC1 [Compound 78],5.25
16,CCC[C@H](N)C(=O)N1CCC(Cc2cccnc2)(C(=O)NCC2CCCCC2)CC1 [Compound 136],5.19

# The next molecules have a higher pIC50 than those just listed; values first:
row,pIC50,SMILES
1,7.14,N[C@@H](Cc1cccs1)C(=O)N1CCC(Cc2ccc(C(=O)N3CCCC3)cc2)(C(=O)NC2CCCCC2)CC1 [Compound 58]
2,7.43,N[C@@H](Cc1cccs1)C(=O)N1CCC(Cc2ccncc2)(C(=O)NC2CCCCC2)CC1 [Compound 71]
3,7.03,N[C@@H](Cc1cccs1)C(=O)N1CCC(Cc2ccncc2)(C(=O)OCC2CCCCC2)CC1 [Compound 22]
4,7.42,COc1ncccc1-c1ccc(CC2(C(=O)NC3CCCCC3)CCN(C(=O)[C@@H](N)Cc3cccs3)CC2)cc1 [Compound 46]
5,7.46,N[C@@H](Cc1cccs1)C(=O)N1CCC(Cc2ccc(-c3ccccc3)cc2)(C(=O)NC2CCCCC2)CC1 [Compound 8]
6,7.54,N[C@@H](Cc1cccs1)C(=O)N1CCC(Cc2ccc(-c3cncnc3)cc2)(C(=O)NC2CCCCC2)CC1 [Compound 43]
7,7.62,N[C@@H](Cc1cccs1)C(=O)N1CCC(Cc2ccc([N+](=O)[O-])cc2)(C(=O)NC2CCCCC2)CC1 [Compound 81]
8,7.46,N[C@@H](Cc1cccs1)C(=O)N1CCC(Cc2ccc(-c3ccc4c(c3)OCO4)cc2)(C(=O)NC2CCCCC2)CC1 [Compound 40]
9,7.62,N[C@@H](Cc1cccs1)C(=O)N1CCC(Cc2ccc(-c3ccc(O)nc3)cc2)(C(=O)NC2CCCCC2)CC1 [Compound 49]
10,7.33,NC(=O)c1ccc(CC2(C(=O)NC3CCCCC3)CCN(C(=O)[C@@H](N)Cc3cccs3)CC2)cc1 [Compound 61]
11,7.64,N[C@@H](Cc1cccs1)C(=O)N1CCC(C(=O)NCC2CCCCC2)(c2ccccc2)CC1 [Compound 91]
12,7.12,N[C@@H](Cc1cccs1)C(=O)N1CCC(C(=O)NCC2CCOCC2)(c2ccccc2)CC1 [Compound 104]
13,7.34,N#Cc1ccc(-c2ccc(CC3(C(=O)NC4CCCCC4)CCN(C(=O)[C@@H](N)Cc4cccs4)CC3)cc2)cc1 [Compound 99]
14,7.80,CN(CC1CCCCC1)C(=O)C1(c2ccccc2)CCN(C(=O)[C@@H](N)Cc2cccs2)CC1 [Compound 134]
15,7.00,N[C@@H](Cc1cccs1)C(=O)N1CCC(Cc2cccnc2)(C(=O)OCC2CCCCC2)CC1 [Compound 24]
16,7.25,COc1cccc(CC2(C(=O)NC3CCCCC3)CCN(C(=O)[C@@H](N)Cc3cccs3)CC2)c1 [Compound 84]
17,7.46,N#Cc1ccc(-c2ccc(CC3(C(=O)NC4CCCCC4)CCN(C(=O)[C@@H](N)Cc4cccs4)CC3)cc2)cc1 [Compound 51]
18,7.51,CS(=O)(=O)Nc1ccc(CC2(C(=O)NC3CCCCC3)CCN(C(=O)[C@@H](N)Cc3cccs3)CC2)cc1 [Compound 88]
19,7.00,N[C@@H](Cc1cccs1)C(=O)N1CCC(Cc2ccc(-c3ccc(C(=O)O)cc3)cc2)(C(=O)NC2CCCCC2)CC1 [Compound 52]
20,7.51,CC(=O)Nc1cccc(-c2ccc(CC3(C(=O)NC4CCCCC4)CCN(C(=O)[C@@H](N)Cc4cccs4)CC3)cc2)c1 [Compound 54]
